Measured values reported in paper PMC4428790, “In Silico and In Vitro Analysis of Bacoside A Aglycones and Its Derivatives as the Constituents Responsible for the Cognitive Effects of Bacopa monnieri” (PLoS ONE, 2015).

How the values were obtained:
[1] = target: T1, 5-HT1A receptor (recombinant human membrane, HEK293 cells) (Homo sapiens, UniProt P08908); assay: radioligand receptor binding assay, [3H]-8-OH-DPAT displacement; details: mean ± S.D.; 2 nM [3H]-8-OH-DPAT; assayed up to 100 or 30 μM
T1 construct: purchased Perkin Elmer Lot no; 1812363; host or cells: HEK293 cells
T1 sequence (P08908 1-422): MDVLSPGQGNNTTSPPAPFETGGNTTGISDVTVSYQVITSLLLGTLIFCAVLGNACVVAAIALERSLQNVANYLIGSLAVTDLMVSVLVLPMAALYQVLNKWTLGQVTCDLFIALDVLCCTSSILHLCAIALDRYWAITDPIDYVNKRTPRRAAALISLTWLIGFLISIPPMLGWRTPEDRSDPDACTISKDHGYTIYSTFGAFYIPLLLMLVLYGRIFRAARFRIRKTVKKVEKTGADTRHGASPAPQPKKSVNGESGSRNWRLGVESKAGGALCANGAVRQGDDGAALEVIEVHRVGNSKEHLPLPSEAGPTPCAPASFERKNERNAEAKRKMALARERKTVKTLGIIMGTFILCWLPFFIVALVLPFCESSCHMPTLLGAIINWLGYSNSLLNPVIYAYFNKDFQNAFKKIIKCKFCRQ
Text: (§1) Recombinant human membrane preparations for M1 (expressed in CHO cells; Lot no. 1706299), 5-HT1A (HEK293 cells; no. 1812363), 5-HT2A (CHO cells; no. 1813092), D1 (L cells; no. 1840059), and D2S (CHO cells; no. 1820984) receptors and MicroScint-O scintillation cocktail were procured from Perkin Elmer (Waltham, MA, USA). [^3H] N-methylscopolamine (NMS), [^3H] 8-OH-DPAT, [^3H] ketanserin, [^3H] SCH 23390 and [^3H] methylspiperone were purchased from American Radiolabeled Chemicals (St. Louis, MO, USA). […] (DTNB) and donepezil hydrochloride were obtained from Sigma-Aldrich (St. Louis, MO, USA). Bacoside A, bacoside A3, bacopaside II, bacopaside X and bacopasaponin C were purchased from Chromadex Inc. (Irvine, CA, USA). Jujubogenin and ebelin lactone were purchased from Shanghai IS Chemical Technology Ltd. (Jinshan, Shanghai, China). Unless stated otherwise, all other reagents of analytical grade were obtained through standard commercial sources.
(§2) The assay was performed according to the methods published previously. […] Pseudojujubogenin and bacogenin A1 were not available for purchase at the time when the work was carried out. All compounds were dissolved in dimethylsulfoxide (DMSO) and the solvent was kept below 1% (v/v) in the final reaction mixture. Briefly, in each well, 100 μl of the respective membrane preparations (μg/well), 50 μl of the respective [^3H]-ligand and 50 μl of the test compounds were added and the total assay reaction volume was made up to 200 μl by adding assay buffer. […] The reaction mixture was incubated for 60 or 120 min at room temperature or 37°C for the respective membranes. The reaction was stopped by rapid filtration onto GF/C filter plates (presoaked in 0.5% polyethyleneimine) using FilterMate (Perkin Elmer) cell harvester and washed with wash buffer (200 μl for 5 times) to remove unbound ligands. The filter plates were dried at 60°C for 15 minutes before the application of Bottom Seal and addition of 50 μl MicroScint-O scintillation cocktail. The top of the plate was then sealed with TopSeal A. Radioactivity (CPM) was counted using TopCount NXT microplate scintillation counter (Perkin-Elmer). The data were analyzed by non-linear regression using Prism Version 5.0 (GraphPad Inc., San Diego CA, USA). The percentage of specific binding of radioligand in the presence of test compounds was calculated using the standard data reduction algorithm: ([B-NSB] / [TB-NSB]) × 100) where B is the binding in the presence of test compounds, NSB is the non-specific binding in the presence of excess reference ligand and TB is the total binding. K i values were calculated from the IC50 values using the Cheng-Prusoff equation [26].

[2] = target: T2, 5-HT2A receptor (recombinant human membrane, CHO cells) (Homo sapiens, UniProt P28223); assay: radioligand receptor binding assay, [3H]-ketanserin displacement; details: for IC50: mean ± S.D., 1 nM [3H]-ketanserin, assayed up to 100 or 30 μM
T2 construct: purchased Perkin Elmer Lot no; 1813092; host or cells: CHO cells
T2 sequence (P28223 whole entry): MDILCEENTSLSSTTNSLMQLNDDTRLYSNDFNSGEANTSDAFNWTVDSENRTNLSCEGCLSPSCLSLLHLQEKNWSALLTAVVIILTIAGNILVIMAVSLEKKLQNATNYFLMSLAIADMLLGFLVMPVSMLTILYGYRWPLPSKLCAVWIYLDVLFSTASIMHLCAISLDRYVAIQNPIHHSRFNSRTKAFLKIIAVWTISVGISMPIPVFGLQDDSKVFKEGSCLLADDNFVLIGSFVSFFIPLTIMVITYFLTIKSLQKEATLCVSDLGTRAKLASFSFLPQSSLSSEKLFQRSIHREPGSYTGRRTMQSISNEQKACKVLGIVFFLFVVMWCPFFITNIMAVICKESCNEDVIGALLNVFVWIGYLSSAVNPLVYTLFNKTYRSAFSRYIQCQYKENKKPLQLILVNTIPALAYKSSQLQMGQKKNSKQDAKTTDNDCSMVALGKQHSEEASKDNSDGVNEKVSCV
Text: as §1, §2

[3] = target: T3, D2S receptor (recombinant human membrane, CHO cells) (Homo sapiens, UniProt P14416); assay: radioligand receptor binding assay, [3H]-methylspiperone displacement; details: mean ± S.D.; 0.2 nM [3H]-methylspiperone; assayed up to 100 or 30 μM; read-out: IC50 D2
T3 construct: purchased Perkin Elmer Lot no; 1820984; host or cells: CHO cells
T3 sequence (P14416 1-414 isoform P14416-2): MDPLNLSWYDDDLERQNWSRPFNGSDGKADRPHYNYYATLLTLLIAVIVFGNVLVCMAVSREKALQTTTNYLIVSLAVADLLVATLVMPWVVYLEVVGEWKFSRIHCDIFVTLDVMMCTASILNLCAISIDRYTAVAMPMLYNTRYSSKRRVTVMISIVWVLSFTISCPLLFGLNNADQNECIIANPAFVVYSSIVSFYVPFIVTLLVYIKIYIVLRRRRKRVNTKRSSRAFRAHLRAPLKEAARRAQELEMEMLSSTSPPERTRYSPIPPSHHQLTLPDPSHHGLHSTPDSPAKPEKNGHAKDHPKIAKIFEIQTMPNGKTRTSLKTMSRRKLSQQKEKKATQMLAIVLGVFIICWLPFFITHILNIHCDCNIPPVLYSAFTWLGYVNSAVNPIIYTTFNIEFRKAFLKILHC
Text: as §1, §2

[4] = target: T4, M1 receptor (recombinant human membrane, CHO cells) (Homo sapiens, UniProt P11229); assay: radioligand receptor binding assay, [3H]-NMS displacement; details: for IC50: mean ± S.D., 0.1 nM [3H]-NMS, assayed up to 100 or 30 μM
T4 construct: purchased Perkin Elmer Lot no; 1706299; host or cells: CHO cells
T4 sequence (P11229 1-460): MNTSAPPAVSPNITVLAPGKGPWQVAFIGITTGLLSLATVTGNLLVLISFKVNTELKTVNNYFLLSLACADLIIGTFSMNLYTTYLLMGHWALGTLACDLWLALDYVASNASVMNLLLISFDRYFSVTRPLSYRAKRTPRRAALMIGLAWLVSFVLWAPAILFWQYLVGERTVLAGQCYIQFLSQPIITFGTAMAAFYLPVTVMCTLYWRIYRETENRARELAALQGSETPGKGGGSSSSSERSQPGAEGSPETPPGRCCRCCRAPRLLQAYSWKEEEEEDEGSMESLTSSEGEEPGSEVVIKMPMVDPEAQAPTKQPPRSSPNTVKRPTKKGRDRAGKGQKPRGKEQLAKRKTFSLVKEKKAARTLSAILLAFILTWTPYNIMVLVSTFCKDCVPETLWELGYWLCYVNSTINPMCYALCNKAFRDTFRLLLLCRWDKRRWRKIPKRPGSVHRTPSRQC
Text: as §1, §2

[5] = target: T5, D1 receptor (recombinant human membrane, L cells) (Homo sapiens, UniProt P21728); assay: radioligand receptor binding assay, [3H]-SCH 23390 displacement; details: for IC50: mean ± S.D., 0.2 nM [3H]-SCH 23390, assayed up to 100 or 30 μM
T5 construct: purchased Perkin Elmer Lot no; 1840059; host or cells: L cells
T5 sequence (P21728 whole entry): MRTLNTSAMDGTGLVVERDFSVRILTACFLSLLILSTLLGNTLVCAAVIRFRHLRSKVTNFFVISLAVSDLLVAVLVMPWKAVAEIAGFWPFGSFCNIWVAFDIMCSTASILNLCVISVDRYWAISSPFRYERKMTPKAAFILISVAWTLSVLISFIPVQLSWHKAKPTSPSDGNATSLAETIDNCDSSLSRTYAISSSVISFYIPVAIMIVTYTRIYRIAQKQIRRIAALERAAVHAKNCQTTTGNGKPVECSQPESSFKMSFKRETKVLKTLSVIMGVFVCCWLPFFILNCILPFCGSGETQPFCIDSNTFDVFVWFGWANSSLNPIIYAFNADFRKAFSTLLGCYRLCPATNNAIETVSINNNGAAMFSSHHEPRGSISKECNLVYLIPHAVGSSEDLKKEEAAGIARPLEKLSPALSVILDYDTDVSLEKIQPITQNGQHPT
Text: as §1, §2

M1 = target: M1; set-up: method as in PMID 24979399; details: M1 agonists; cited from earlier work
[6] = from IC50 by Cheng-Prusoff equation

Compound | IC50 [1] [µM] | IC50 [2] [µM] | IC50 [3] [µM] | IC50 [4] [µM] | IC50 [5] [µM] | Ki [5, 6] [µM] | Ki [2, 6] [µM] | Ki [4, 6] [µM] | Ki (M1) [µM]
CC(C)=C[C@@H]1CO[C@]23C[C@]4(CO2)[C@H](CC[C@@H]2[C@@]5(C)CC[C@H](O[C@@H]6OC[C@H](O)[C@H](O[C@@H]7O[C@H](CO)[C@@H](O)[C@H](O)[C@H]7O)[C@H]6O[C@@H]6O[C@@H](CO)[C@H](O)[C@H]6O)C(C)(C)[C@@H]5CC[C@]24C)[C@H]3[C@@]1(C)O [Bacopasaponin C, bacopasaponin C] | > 100 | > 100 | > 100 | > 100 | > 100 | – | – | – | –
CC(C)=CC1COC23CC4(CO2)C(CCC2C5(C)CCC(OC6OC(CO)C(O)C(OC7OC(CO)C(O)C(O)C7O)C6OC6OC(CO)C(O)C6O)C(C)(C)C5CCC24C)C3C1(C)O (stereo not shown) [Bacopaside II, bacopaside II] | > 30 | > 30 | > 30 | > 30 | > 30 | – | – | – | –
CC(C)=C[C@H]1C[C@](C)(O)[C@@H]2[C@H]3CC[C@@H]4[C@@]5(C)CC[C@H](O[C@@H]6OC[C@H](O)[C@H](O[C@@H]7O[C@H](CO)[C@@H](O)[C@H](O)[C@H]7O)[C@H]6O[C@@H]6O[C@@H](CO)[C@H](O)[C@H]6O)C(C)(C)[C@@H]5CC[C@@]4(C)[C@@]34CO[C@@]2(C4)O1 [Bacopaside X, bacopaside X] | > 100 | > 100 | > 100 | > 100 | 19.5 ± 3.07 | 9.06 | – | – | –
CC(C)=C[C@H]1C[C@](C)(O)[C@@H]2[C@H]3CC[C@@H]4[C@@]5(C)CC[C@H](O[C@@H]6O[C@H](CO)[C@@H](O)[C@H](O[C@@H]7O[C@H](CO)[C@@H](O)[C@H](O)[C@H]7O)[C@H]6O[C@@H]6O[C@@H](CO)[C@H](O)[C@H]6O)C(C)(C)[C@@H]5CC[C@@]4(C)[C@@]34CO[C@@]2(C4)O1 [Bacoside A3, bacoside A3] | > 100 | > 100 | > 100 | > 100 | > 100 | – | – | – | –
CC(C)=CC=CC(C)=CC1CCC2C3(C)CCC(O)C(C)(C)C3CCC2(C)C12COC(=O)C2 (stereo not shown) [Ebelin Lactone, ebelin lactone] | > 30 | 14.5 ± 4.98 | > 30 | 0.8 ± 0.19 | > 30 | – | 4.21 | 0.45 | –
CC(C)=CC1CC(C)(O)C2C3CCC4C5(C)CCC(O)C(C)(C)C5CCC4(C)C34COC2(C4)O1 (stereo not shown) [Jujubogenin, jujubogenin] | > 30 | > 30 | > 30 | > 30 | > 30 | – | – | – | –
CC(=O)OCC[N+](C)(C)C [acetylcholine] | – | – | – | – | – | – | – | – | 59
